From patent US9067871B2, “Aminotetraline derivatives, pharmaceutical compositions containing them, and their use in therapy” (ABBVIE DEUTSCHLAND GMBH & CO KG, priority 2009, dated 2015)
Structures can show the parent of a compound that is named as a salt.

Biological target: human GlyT1c transporter (Homo sapiens (Human), UniProt P48067)
Assay: Radioligand binding assay using recombinant CHO cell membranes expressing human GlyT1
Conditions: human GlyT1c-expressing CHO cell membranes; read-out: radioligand binding Kiapp
Source text: 2. Radioligand binding assays using recombinant CHO cell membranes expressing human GlyT1: […]

Sequence of human GlyT1c transporter (P48067 whole entry): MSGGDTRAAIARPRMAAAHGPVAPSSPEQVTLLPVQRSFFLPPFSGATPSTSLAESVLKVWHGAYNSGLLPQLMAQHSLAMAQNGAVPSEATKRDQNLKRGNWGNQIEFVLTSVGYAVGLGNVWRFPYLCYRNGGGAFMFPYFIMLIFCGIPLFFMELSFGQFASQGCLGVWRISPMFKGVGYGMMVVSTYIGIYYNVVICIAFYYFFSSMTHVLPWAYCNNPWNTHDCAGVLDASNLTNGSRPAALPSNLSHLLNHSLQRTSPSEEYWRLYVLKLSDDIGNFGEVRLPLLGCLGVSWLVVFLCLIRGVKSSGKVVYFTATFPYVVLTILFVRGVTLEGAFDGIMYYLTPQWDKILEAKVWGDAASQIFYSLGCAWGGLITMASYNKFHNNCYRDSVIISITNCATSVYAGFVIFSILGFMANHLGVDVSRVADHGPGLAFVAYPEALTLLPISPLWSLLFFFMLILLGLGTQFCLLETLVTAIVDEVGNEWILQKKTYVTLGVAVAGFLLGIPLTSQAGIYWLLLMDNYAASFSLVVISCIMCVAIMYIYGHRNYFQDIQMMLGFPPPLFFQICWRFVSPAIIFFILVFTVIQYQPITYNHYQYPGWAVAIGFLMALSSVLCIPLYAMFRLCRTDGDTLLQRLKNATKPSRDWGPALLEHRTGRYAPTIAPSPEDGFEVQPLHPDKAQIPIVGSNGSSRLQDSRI

| Ki | Compound |
| --- | --- |
| ≤ 100 nM | CCNC1CCc2ccc(CCCNS(=O)(=O)CC3CC3)cc2C1Cc1cccc(F)c1 (stereo not shown) [Example 221, C-Cyclopropyl-N-{3-[7-ethylamino-8-(3-fluoro-benzyl)-5,6,7,8-tetrahydro-naphthalen-2-yl]-propyl}-methanesulfonamide hydrochloride] |
| ≤ 100 nM | CN(CCCc1ccc2c(c1)C(Cc1ccc(Cl)cc1)C(N)CC2)S(=O)(=O)CC1CC1 (stereo not shown) [Example 233, N-{3-[7-Amino-8-(4-chlorobenzyl)-5,6,7,8-tetrahydronaphthalen-2-yl]propyl}-1-cyclopropylN-methylmethanesulfonamide hydrochloride] |
| ≤ 100 nM | CCCS(=O)(=O)N(C)CCCc1ccc2c(c1)C(Cc1ccc(Cl)cc1)C(N)CC2 (stereo not shown) [Example 234, N-{3-[7-Amino-8-(4-chlorobenzyl)-5,6,7,8-tetrahydronaphthalen-2-yl]propyl}-N-methylpropane-1-sulfonamide hydrochloride] |
| ≤ 100 nM | O=S(=O)(CC1CC1)NCCOc1ccc2c(c1)C(Cc1cccc(Cl)c1)C(N1CCCC1)CC2 (stereo not shown) [Example 317, N-{2-[8-(3-Chloro-benzyl)-7-pyrrolidin-1-yl-5,6,7,8-tetrahydro-naphthalen-2-yloxy]-ethyl}-C-cyclopropyl-methanesulfonamide hydrochloride] |
| ≤ 1000 nM | O=S(=O)(NCc1ccc2c(c1)C(Cc1ccccc1)C(N1CCC1)CC2)c1ccccn1 (single isomer, unassigned; enantiomer 1) [Example 253, Enantiomer 1 of N-{[7-(azetidin-1-yl)-8-benzyl-5,6,7,8-tetrahydronaphthalen-2-yl]methyl}pyridine-2-sulfonamide] |
| ≤ 10000 nM | CCCS(=O)(=O)NCC#Cc1ccc2c(c1)C(Cc1ccccc1)C(NC(C)=O)CC2 (stereo not shown) [Example 276, N-[1-Benzyl-7-{3-[(propylsulfonyl)amino]prop-1-yn-1-yl}-1,2,3,4-tetrahydronaphthalen-2-yl]acetamide] |
| ≤ 10000 nM | CCOC(=O)NC1CCc2ccc(OCCNS(=O)(=O)CC3CC3)cc2C1Cc1cccc(Cl)c1 (stereo not shown) [Example 287, [1-(3-Chloro-benzyl)-7-(2-cyclopropylmethanesulfonylamino-ethoxy)-1,2,3,4-tetrahydronaphthalen-2-yl]-carbamic acid ethyl ester] |
| ≤ 10000 nM | NC1CCc2ccc(OCCNS(=O)(=O)C3CC3)cc2C1Cc1ccccc1Cl (stereo not shown) [Example 294, Cyclopropanesulfonic acid {2-[7-amino-8-(2-chloro-benzyl)-5,6,7,8-tetrahydro-naphthalen-2-yloxyl]-ethyl}-amide hydrochloride] |
| > 10000 nM | CCOC(=O)NC1CCc2ccc(OCC3CN(S(=O)(=O)CC4CC4)C3)cc2C1Cc1cccc(Cl)c1 (stereo not shown) [Example 289, [1-(3-Chloro-benzyl)-7-(1-cyclopropylmethanesulfonyl-azetidin-3-ylmethoxy)-1,2,3,4-tetrahydro-naphthalen-2-yl]-carbamic acid ethyl ester] |
| ≤ 10 nM | CNC1CCc2ccc(OCCNS(=O)(=O)CC3CC3)cc2C1Cc1cc(F)cc(F)c1 (stereo not shown) [Example 243, 1-Cyclopropyl-N-(2-{[8-(3,5-difluorobenzyl)-7-(methylamino)-5,6,7,8-tetrahydronaphthalen-2-yl]oxy}ethylmethanesulfonamide hydrochloride] |
| ≤ 100 nM | CNC1CCc2ccc(OCCNS(=O)(=O)c3cnn(C)c3)cc2C1Cc1ccccc1Cl (stereo not shown) [Example 302, 1-Methyl-1H-pyrazole-4-sulfonic acid {2-[8-(2-chloro-benzyl)-7-methylamino-5,6,7,8-tetrahydro-naphthalen-2-yloxy]-ethyl}-amide hydrochloride] |
| ≤ 100 nM | CCCS(=O)(=O)N(C)CCCc1ccc2c(c1)C(Cc1ccc(F)cc1)C(N)CC2 (stereo not shown) [Example 232, N-{3-[7-Amino-8-(4-fluorobenzyl)-5,6,7,8-tetrahydronaphthalen-2-yl]propyl}-N-methylpropane-1-sulfonamide hydrochloride] |
| ≤ 10 nM | Cn1ccc(S(=O)(=O)NCCOc2ccc3c(c2)C(Cc2ccccc2)C(N2CCC2)CC3)c1 (stereo not shown) [Example 268, N-(2-{[7-(Azetidin-1-yl)-8-benzyl-5,6,7,8-tetrahydronaphthalen-2-yl]oxy}ethyl)-1-methyl-1H-pyrrole-3-sulfonamide] |
| ≤ 10 nM | Cn1ccc(S(=O)(=O)NCCOc2ccc3c(c2)C(Cc2cccc(F)c2)C(N2CCC2)CC3)c1 (stereo not shown) [Example 269, 1-Methyl-1H-pyrrole-3-sulfonic acid {2-[7-azetidin-1-yl-8-(3-fluoro-benzyl)-5,6,7,8-tetrahydro-naphthalen-2-yloxy]-ethyl}-amide] |

Continued, compound first:

| Compound | Ki |
| --- | --- |
| CC(C)NC1CCc2ccc(OCCNS(=O)(=O)c3cn(C)cn3)cc2C1Cc1cccc(C#N)c1 (stereo not shown) [Example 154, N-(2-{[8-(3-Cyanobenzyl)-7-(propan-2-ylamino)-5,6,7,8-tetrahydronaphthalen-2-yl]oxy}ethyl)-1-methyl-1H-imidazole-4-sulfonamide hydrochloride] | ≤ 100 nM |
| NC1CCc2ccc(OCCNC(=O)CC3CC3)cc2C1Cc1ccc(Cl)c(Cl)c1 (stereo not shown) [Example 122, N-(2-{[7-Amino-8-(3,4-dichlorobenzyl)-5,6,7,8-tetrahydronaphthalen-2-yl]oxy}ethyl)-2-cyclopropylacetamide hydrochloride] | ≤ 10000 nM |
| CN(CCOc1ccc2c(c1)C(Cc1ccccc1)C(N1CCCC1)CC2)S(=O)(=O)CC1CC1 (stereo not shown) [Example 127, N-(2-{[8-Benzyl-7-(pyrrolidin-1-yl)-5,6,7,8-tetrahydronaphthalen-2-yl]oxy}ethyl)-1-cyclopropyl-N-methylmethanesulfonamide hydrochloride] | ≤ 100 nM |
| NC1CCc2ccc(OCCNS(=O)(=O)CC3CC3)cc2C1Cc1cc(F)cc(Cl)c1 (stereo not shown) [Example 150, N-(2-{[7-Amino-8-(3-chloro-5-fluorobenzyl)-5,6,7,8-tetrahydronaphthalen-2-yl]oxy}ethyl)-1-cyclopropylmethanesulfonamide hydrochloride] | ≤ 10 nM |
| CCCS(=O)(=O)NCCCc1ccc2c(c1)C(Cc1ccc(Cl)c(Cl)c1)C(N)CC2 (stereo not shown) [Example 203, N-{3-[7-Amino-8-(3,4-dichlorobenzyl)-5,6,7,8-tetrahydronaphthalen-2-yl]propyl}propane-1-sulfonamide hydrochloride] | ≤ 10 nM |
| NC1CCc2ccc(CNS(=O)(=O)C3CCC3)cc2C1Cc1ccc(F)c(F)c1 (stereo not shown) [Example 186, N-{[7-Amino-8-(3,4-difluorobenzyl)-5,6,7,8-tetrahydronaphthalen-2-yl]methyl}cyclobutanesulfonamide hydrochloride] | ≤ 1000 nM |
| CN(CCOc1ccc2c(c1)C(Cc1ccc(Cl)c(Cl)c1)C(N)CC2)S(=O)(=O)CC1CC1 (stereo not shown) [Example 108, N-{2-[7-Amino-8-(3,4-dichloro-benzyl)-5,6,7,8-tetrahydro-naphthalen-2-yloxy]-ethyl}-C-cyclopropyl-N-methyl-methanesulfonamide hydrochloride] | ≤ 10 nM |
| CN(CCOc1ccc2c(c1)C(Cc1ccccc1)C(N)CC2)S(=O)(=O)c1cn(C)cn1 (stereo not shown) [Example 98, 1-Methyl-1H-imidazole-4-sulfonic acid [2-(7-amino-8-benzyl-5,6,7,8-tetrahydronaphthalen-2-yloxy)-ethyl]-methyl-amide hydrochloride] | ≤ 1000 nM |
| NC1CCc2ccc(CCCNS(=O)(=O)CC3CC3)cc2C1Cc1ccccc1Cl (stereo not shown) [Example 212, N-{3-[7-Amino-8-(2-chloro-benzyl)-5,6,7,8-tetrahydro-naphthalen-2-yl]-propyl}-C-cyclopropyl-methanesulfonamide hydrochloride] | ≤ 1000 nM |
| CCCS(=O)(=O)NCCCc1ccc2c(c1)C(Cc1ccc(F)c(F)c1)C(N)CC2 (stereo not shown) [Example 206, N-{3-[7-Amino-8-(3,4-difluoro-benzyl)-5,6,7,8-tetrahydronaphthalen-2-yl]propyl}propane-1-sulfonamide hydrochloride] | ≤ 100 nM |
| O=S(=O)(CC1CC1)NCCOc1ccc2c(c1)C(Cc1cccc(F)c1)C(N1CCCC1)CC2 (stereo not shown) [Example 138, 1-Cyclopropyl-N-(2-{[8-(3-fluorobenzyl)-7-(pyrrolidin-1-yl)-5,6,7,8-tetrahydronaphthalen-2-yl]oxy}ethyl)methanesulfonamide hydrochloride] | ≤ 10 nM |
| Cn1cnc(S(=O)(=O)NCCOc2ccc3c(c2)C(Cc2ccccc2)C(N2CCC2)CC3)c1 (stereo not shown) [Example 145, N-(2-{[7-(Azetidin-1-yl)-8-benzyl-5,6,7,8-tetrahydronaphthalen-2-yl]oxy}ethyl)-1-methyl-1H-imidazole-4-sulfonamide] | ≤ 10 nM |
| COc1cccc(CC2c3cc(OCCNS(=O)(=O)c4cn(C)cn4)ccc3CCC2N2CCCC2)c1 (stereo not shown) [Example 164, N-(2-{[8-(3-Methoxybenzyl)-7-(pyrrolidin-1-yl)-5,6,7,8-tetrahydronaphthalen-2-yl]oxy}ethyl)-1-methyl-1H-imidazole-4-sulfonamide hydrochloride] | ≤ 10 nM |
| CCNC1CCc2ccc(CNS(=O)(=O)c3cn(C)cn3)cc2C1Cc1ccc(F)cc1 (stereo not shown) [Example 199, 1-Methyl-1H-imidazole-4-sulfonic acid [7-ethylamino-8-(4-fluoro-benzyl)-5,6,7,8-tetrahydro-naphthalen-2-ylmethyl]-amide hydrochloride] | ≤ 100 nM |
| NC1CCc2ccc(CNS(=O)(=O)C3CCC3)cc2C1Cc1cccc(F)c1 (stereo not shown) [Example 184, N-{[7-Amino-8-(3-fluorobenzyl)-5,6,7,8-tetrahydronaphthalen-2-yl]methyl}cyclobutanesulfonamide hydrochloride] | ≤ 100 nM |
| CCCS(=O)(=O)NCCCc1ccc2c(c1)C(Cc1ccc(F)cc1)C(NCC)CC2 (stereo not shown) [Example 220, N-{3-[7-(Ethylamino)-8-(4-fluorobenzyl)-5,6,7,8-tetrahydronaphthalen-2-yl]propyl}propane-1-sulfonamide hydrochloride] | ≤ 1000 nM |
| NC1CCc2ccc(OCCNS(=O)(=O)C3CCCCC3)cc2C1Cc1ccc(Cl)c(Cl)c1 (stereo not shown) [Example 85, Cyclohexanesulfonic acid {2-[7-amino-8-(3,4-dichloro-benzyl)-5,6,7,8-tetrahydro-naphthalen-2-yloxy]-ethyl}-amide hydrochloride] | ≤ 1000 nM |
